Among the data in the NIST ThermoML archive (doi:10.1016/j.tca.2005.05.013) are Normal melting temperature values, retold here.

± gives the expanded uncertainty stated by the source.

The conditions of the data set: Crystal; DTA.

As for `O=[N+]([O-])c1ccc2[nH]c3ccc([N+](=O)[O-])cc3c2c1` [3,6-dinitro-9H-carbazole], the Normal melting temperature was found to be 296.50 ± 10 °C.
Next, `Nc1ccc2[nH]c3ccc(N)cc3c2c1` [3,6-diamino-9H-carbazole]: 241.00 ± 10 °C.
